These results are taken from patent publication US20240352075A1, “PACAP1-23 ANALOG GLYCOPEPTIDES AND METHODS FOR PRODUCING AND USING THE SAME” (priority 2021, published 2024).

SMILES strings stand for the structures. Where a SMILES comes first, the peptide text is derived from it. [ ]: non-standard residue; d: D form. The star is where a group is joined. ξ: configuration not given here. X2 = OCC1OC(OC2C(CO)OC(*)C(O)C2O)C(O)C(O)C1O; X1 = OCC1OC(*)C(O)C(O)C1O; Nva = CCC[C@H](N)C(=O)O; ξS = NC(CO)C(=O)O; Sar = CNCC(=O)O

Common to all, as to type: cell-based
Conditions in all cases: CHO

One test concerns the target T1, VPAC2 (Homo sapiens, UniProt P41587).
T1 construct: 3xHA (N)
T1 sequence (P41587 24-438): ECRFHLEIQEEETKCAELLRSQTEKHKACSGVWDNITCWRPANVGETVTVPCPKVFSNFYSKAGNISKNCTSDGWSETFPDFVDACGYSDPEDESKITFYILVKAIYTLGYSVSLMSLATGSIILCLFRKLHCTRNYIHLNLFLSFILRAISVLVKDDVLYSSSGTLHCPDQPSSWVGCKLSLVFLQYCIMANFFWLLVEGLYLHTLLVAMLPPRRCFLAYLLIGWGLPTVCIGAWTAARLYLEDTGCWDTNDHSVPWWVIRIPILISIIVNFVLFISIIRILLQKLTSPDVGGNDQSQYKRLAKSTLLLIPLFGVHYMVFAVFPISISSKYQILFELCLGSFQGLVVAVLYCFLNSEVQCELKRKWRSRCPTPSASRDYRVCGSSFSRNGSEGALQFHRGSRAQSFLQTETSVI
Briefly: cAMP accumulation assay in CHO cells stably expressing VPAC2.

A further test deals with T2, PAC1 (Homo sapiens, UniProt P41586).
T2 construct: 3xHA (N)
T2 sequence (P41586 21-468): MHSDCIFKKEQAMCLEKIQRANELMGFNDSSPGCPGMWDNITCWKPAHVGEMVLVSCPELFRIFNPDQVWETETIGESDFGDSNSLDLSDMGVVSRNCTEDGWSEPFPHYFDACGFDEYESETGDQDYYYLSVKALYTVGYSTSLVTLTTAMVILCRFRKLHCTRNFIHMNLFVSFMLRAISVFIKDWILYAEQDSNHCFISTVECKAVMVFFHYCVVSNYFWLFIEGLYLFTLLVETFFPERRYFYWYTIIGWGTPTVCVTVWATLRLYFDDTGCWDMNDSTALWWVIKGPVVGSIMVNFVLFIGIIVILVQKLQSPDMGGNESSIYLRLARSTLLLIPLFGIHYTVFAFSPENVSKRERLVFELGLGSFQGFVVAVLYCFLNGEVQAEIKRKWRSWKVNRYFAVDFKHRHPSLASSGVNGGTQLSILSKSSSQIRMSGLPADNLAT
In words: cAMP accumulation assay in CHO cells stably expressing PAC1.

Another test addresses T3, VPAC1 (Homo sapiens, UniProt P32241).
T3 construct: 3xHA (N)
T3 sequence (P32241 31-457): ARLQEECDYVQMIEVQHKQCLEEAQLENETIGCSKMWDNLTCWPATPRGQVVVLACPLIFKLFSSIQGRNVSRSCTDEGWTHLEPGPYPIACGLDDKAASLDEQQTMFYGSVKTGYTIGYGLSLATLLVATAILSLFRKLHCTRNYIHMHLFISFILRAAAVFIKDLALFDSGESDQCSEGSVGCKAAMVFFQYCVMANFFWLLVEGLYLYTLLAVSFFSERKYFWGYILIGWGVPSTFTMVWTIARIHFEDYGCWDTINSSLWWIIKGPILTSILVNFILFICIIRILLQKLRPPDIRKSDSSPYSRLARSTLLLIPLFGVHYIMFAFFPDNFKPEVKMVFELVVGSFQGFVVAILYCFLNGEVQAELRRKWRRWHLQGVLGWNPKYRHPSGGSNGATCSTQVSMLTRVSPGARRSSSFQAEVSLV
Briefly: cAMP accumulation assay in CHO cells stably expressing VPAC1.

The mark [1] stands for this setting: Table 3, in vitro cAMP stimulation, NC = No Convergence (no activity).

For the compound `CCC[C@H](NC(=O)[C@H](CCC(N)=O)NC(=O)[C@H](CCCCN)NC(=O)[C@H](CCCNC(=N)N)NC(=O)[C@H](Cc1ccc(O)cc1)NC(=O)[C@H](CCCNC(=N)N)NC(=O)[C@H](CO)NC(=O)[C@H](Cc1ccc(O)cc1)NC(=O)[C@H](CO)NC(=O)[C@H](CC(=O)O)NC(=O)[C@@H](NC(=O)[C@H](Cc1ccccc1)NC(=O)[C@@H](NC(=O)CNC(=O)[C@H](CC(=O)O)NC(=O)[C@H](CO)NC(=O)[C@@H](N)Cc1c[nH]cn1)[C@@H](C)CC)[C@@H](C)O)C(=O)N[C@@H](C)C(=O)N[C@H](C(=O)N[C@@H](CCCCN)C(=O)N[C@@H](CCCCN)C(=O)N[C@@H](Cc1ccc(O)cc1)C(=O)N[C@@H](CC(C)C)C(=O)NC(COC1OC(CO)C(O)C(O)C1O)C(N)=O)C(C)C` (stereo partly shown) [CRA-DV-3023] (H-HSDGIFTDSYSRYRKQ[Nva]AVKKYL[ξS](X1)-NH2), the Emax on VPAC2 (setting [1]) was determined as 90%; at PAC1 it was 181%; on VPAC1 it was 105%.
Take `CCC[C@H](NC(=O)[C@H](CCC(N)=O)NC(=O)[C@H](CCCCN)NC(=O)[C@H](CCCNC(=N)N)NC(=O)[C@H](Cc1ccc(O)cc1)NC(=O)[C@H](CCCNC(=N)N)NC(=O)[C@H](CO)NC(=O)[C@H](Cc1ccc(O)cc1)NC(=O)[C@H](CO)NC(=O)[C@H](CC(=O)O)NC(=O)[C@@H](NC(=O)[C@H](Cc1ccccc1)NC(=O)[C@@H](NC(=O)[C@H](C)NC(=O)[C@H](CC(=O)O)NC(=O)[C@H](CO)NC(=O)[C@@H](N)Cc1c[nH]cn1)[C@@H](C)CC)[C@@H](C)O)C(=O)N[C@@H](C)C(=O)N[C@H](C(=O)N[C@@H](CCCCN)C(=O)N[C@@H](CCCCN)C(=O)N[C@@H](Cc1ccc(O)cc1)C(=O)N[C@@H](CC(C)C)C(=O)NC(COC1OC(CO)C(OC2OC(CO)C(O)C(O)C2O)C(O)C1O)C(N)=O)C(C)C` (stereo partly shown) [CRA-TG-3026] (H-HSDAIFTDSYSRYRKQ[Nva]AVKKYL[ξS](X2)-NH2): the Emax amounted to 190% at VPAC2, 115% at VPAC2 (setting [1]), 181% on PAC1 and 95% at VPAC1.
As to `CCC[C@H](NC(=O)[C@H](CCC(N)=O)NC(=O)[C@H](CCCCN)NC(=O)[C@H](CCCNC(=N)N)NC(=O)[C@H](Cc1ccc(O)cc1)NC(=O)[C@H](CCCNC(=N)N)NC(=O)[C@H](CO)NC(=O)[C@H](Cc1ccc(O)cc1)NC(=O)[C@H](CO)NC(=O)[C@H](CC(=O)O)NC(=O)[C@@H](NC(=O)[C@H](Cc1ccccc1)NC(=O)[C@@H](NC(=O)CNC(=O)[C@H](CC(=O)O)NC(=O)[C@H](CO)NC(=O)[C@@H](N)Cc1c[nH]cn1)[C@@H](C)CC)[C@@H](C)O)C(=O)N[C@@H](C)C(=O)N[C@H](C(=O)N[C@@H](CCCCN)C(=O)N[C@@H](CCCCN)C(=O)N[C@@H](Cc1ccc(O)cc1)C(=O)N[C@@H](CC(C)C)C(=O)NC(COC1OC(CO)C(OC2OC(CO)C(O)C(O)C2O)C(O)C1O)C(N)=O)C(C)C` (stereo partly shown) [CRA-TG-3025] (H-HSDGIFTDSYSRYRKQ[Nva]AVKKYL[ξS](X2)-NH2), the Emax on VPAC2 turned out to be 168%; on VPAC2 (setting [1]), 118%; at PAC1, 174%; on VPAC1 it was 91%.
As to `CCC[C@H](NC(=O)[C@H](CCC(N)=O)NC(=O)[C@H](CCCCN)NC(=O)[C@H](CCCNC(=N)N)NC(=O)[C@H](Cc1ccc(O)cc1)NC(=O)[C@H](CCCNC(=N)N)NC(=O)[C@H](CO)NC(=O)[C@H](Cc1ccc(O)cc1)NC(=O)[C@H](CO)NC(=O)[C@H](CC(=O)O)NC(=O)[C@@H](NC(=O)[C@H](Cc1ccccc1)NC(=O)[C@@H](NC(=O)CN(C)C(=O)[C@H](CC(=O)O)NC(=O)[C@H](CO)NC(=O)[C@@H](N)Cc1c[nH]cn1)[C@@H](C)CC)[C@@H](C)O)C(=O)N[C@@H](C)C(=O)N[C@H](C(=O)N[C@@H](CCCCN)C(=O)N[C@@H](CCCCN)C(=O)N[C@@H](Cc1ccc(O)cc1)C(=O)N[C@@H](CC(C)C)C(=O)NC(COC1OC(CO)C(OC2OC(CO)C(O)C(O)C2O)C(O)C1O)C(N)=O)C(C)C` (stereo partly shown) [CRA-TG-3027] (H-HSD[Sar]IFTDSYSRYRKQ[Nva]AVKKYL[ξS](X2)-NH2), the Emax on PAC1 was determined as 134%; at VPAC1, 90%.
